The source of these data is patent US9802897B2, “Amidopyridinol derivative or pharmaceutically acceptable salt thereof and pharmaceutical composition comprising same as active component” (Research Cooperation Foundation of Yeungnam University, priority 2013, dated 2017).

Where “and” joins values, the source holds several entries; their conditions need not be identical. Equal values may be shown once.

The subject of assay [1] is VEGF-induced angiogenesis in chicken chorioallantoic membrane (CAM). The assay can be described thus: CAM analysis of VEGF-induced angiogenesis. It counts as in vivo. As to conditions: for inhibition in vivo at 0.01 nmol/CAM: Gallus gallus, 72 h, VEGF (20 ng/CAM) + Compound (0.01 nmol/CAM), number of blood vessels after 3 days, read-out: Inhibitory rates (%); for ID50 against inhibition of angiogenesis: VEGF-induced CAM angiogenesis. A digest of the protocol: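 Fertilized chicken eggs incubated at 37° C, 55% humidity; on day 10 a window was opened and a cortisone acetate (3 mg/mL)-treated filter disk carrying VEGF at 20 ng/CAM was placed on vessels. Compounds in DMSO/PBS were applied at several concentrations for 3 days; blood vessel number under the disk was counted by stereomicroscopy.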

The test system of the next assay is HT-29 cells / U937 cells. The assay can be described thus: TNF-α-induced adhesion of HT-29 intestinal epithelial cells and U937 mononuclear cells. It counts as cell-based, human. As to conditions: Homo sapiens; 1 μM, pre-treated 1 hour; TNF-α 10 ng/ml; read-out: Inhibitory rates (%). A digest of the protocol: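 HT-29 cells were pretreated with compound for 1 h in serum-free medium, then stimulated with TNF-α 10 ng/ml for 3 h at 37 °C. BCECF-AM-labelled U937 cells were co-incubated for 1 h at 37 °C. Non-adherent cells were washed off, and lysates in 0.1% Triton X-100/0.1 M Tris were read by fluorescence.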

The next assay relates to cathepsin S. The assay is described as follows: RT-PCR of cathepsin S gene expression in MDA-MB-231 cells. Conditions: Homo sapiens, MDA-MB-231, 24 h, screening, 1 μM of each compound; MDA-MB-231, RT-PCR; read-out: Inhibition rate of expression of cathepsin S (%). It counts as cell-based. As to the method: Each compound of the present invention was treated with breast cancer cells (1×10^5 cell/cm^2), e.g., MDA-MB-231, and then, cultured at a temperature of 37° C. for 24 hours in a cell incubator. Afterwards, a trizole reagent was used to extract the entire mRNA therefrom. 24 hours later, the culture medium was removed therefrom, 1 mL of the triazole reagent was added to each well, and then, the cell elusion was transferred to a 1.5 mL tube. After 200 μl of chloroform was added to each sample, the samples were subjected to centrifugation at a temperature of 4° C., at 12,000 g, for 15 minutes. 500 μl of the supernatant obtained therefrom was transferred to a new tube. After 500 μl of isopropylalcohol was added to each sample, the samples were subjected to centrifugation at a temperature of 4° C., at 12,000 g, for 15 minutes. The supernatant obtained therefrom was removed from each sample, and then, the samples were washed with 75% ethanol to clean mRNA while the precipitants were dried. Then, mRNA extracted therefrom was dissolved in RNase-free water, followed by being heated at a temperature of 55° C. for 10 minutes.
After the RNA quantification, the GoScript™ reverse transcription system (Promega Corporation, Madison, Wis., USA) was used to synthesize cDNA. Here, PCR was performed by using TaKaRa Taq™ (Takara bio Inc., Shiga, Japan), wherein a primer set of cathepsin S consists of a forward primer having SEQ ID NO: 1 (forward sequence: 5′-GCAGTGGCACAGTTGCATAA-3′) and a reverse primer having SEQ ID NO: 2 (reverse sequence: 5′-AGCACCACAAGAACCCATGT-3′). After the PCR product was subjected to agarose gel electrophoresis, the PCR product was stained with ethidium bromide (0.5 μg/ml), thereby obtaining images thereof by using the gel imaging system (UVP, Cambridge, UK). Here, the PCR product was quantified based on glyceraldehyde 3-phosphate dehydrogenase (GAPDH). A GAPDH primer used herein consists of a forward primer having SEQ ID NO: 3 (forward sequence: 5′-GGTGAAGGTCGGAGTCAACG-3′) and a reverse primer having SEQ ID NO: 4 (reverse sequence: 5′-CAAAGTTGTCATGGATGACC-3′).
Furthermore, to screen other amidopyridinol derivatives that inhibit metastasis of breast cancer cells, inhibitory effects on expression of cathepsin S genes were reviewed by treating 1 μM of each compound, in the same manner as in Experimental Example 9.

Another assay relates to HUVEC cells. The assay is described as follows: Scavenging of VEGF-induced ROS in HUVEC cells (DCF-DA fluorescence). It counts as cell-based. As to conditions: pre-treated 3 hours, induced by VEGF 15 minutes, vs VEGF-induced cells. As to the method:
To measure scavenging effects of ROS in HUVEC cells that were induced by VEGF, 2′,7′-dichlorofluorescein diacetate (DCF-DA) was used. […] After […] at a concentration of 1×10^5, each of which well was coated with 0.2% gelatin, DCF-DA was cultured for 24 hours. Meanwhile, Compounds 8a and 8b were pre-treated for 3 hours, induced by VEGF for 15 minutes, and then, washed with PBS (pH 7.4) three times. Then, 10 μM of DCF-DA was placed in a EBM-2 medium to be treated for 30 minutes in a dark room. Then, DCF-DA was washed again with PBS three times, and then, subjected to measure intensity of fluorescence in the cells by using a fluorescence microscope.

Turning to `CC(=O)Nc1nc(C)c(O)c(C)c1C` [Compound 8a, N-(5-hydroxy-3,4,6-trimethylpyridine-2-yl)acetamide], in assay [1], the inhibition in vivo at 0.01 nmol/CAM was found to be 84.8 ± 10%; the “ID50 against inhibition of angiogenesis” value is 1.7 pg/CAM and 8.7 fmol/CAM. Besides, the inhibition at 1 µM with HT-29 cells / U937 cells worked out at 55.4%. The inhibition at 1 µM in the assay with cathepsin S was not below 50%. The “intensity of fluorescence in the cells (ROS)” value in the assay on HUVEC cells is “significant decrease in the intensity of fluorescence”.
In the case of `CCCCCCCCCCCC(=O)Nc1nc(C)c(O)c(C)c1C` [Compound 8b, N-(5-hydroxy-3,4,6-trimethylpyridine-2-yl)dodecanamide], in assay [1], the inhibition in vivo at 0.01 nmol/CAM turned out to be 59.3 ± 5.4%. Moreover, the “ID50 against inhibition of angiogenesis” value in assay [1] is 5.0 pg/CAM and 14.9 fmol/CAM. Further, the inhibition at 1 µM is 55.8% in the assay with HT-29 cells / U937 cells and not below 50% in the assay with cathepsin S. In addition, the “intensity of fluorescence in the cells (ROS)” value in the assay on HUVEC cells is reported as “significant decrease in the intensity of fluorescence”.
